From EP0745595A1, “3-(3-Aryloxyphenyl)-1-(substituted methyl)-s-triazine-2,4,6-oxo or thiotrione herbicidal agents” (American Cyanamid Company, priority 1995, dated 1996)

Key:
Type in all cases: in vivo
[1] = system: GALIUM APARINE; test: Preemergence herbicidal evaluation, GALAP (Galium); conditions: for GALAP rating: four to five weeks after treatment; for GALAP herbicidal rating: rated four to five weeks after treatment
Method in brief: (§1)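 Rated 0-9 by visual comparison with control (stand, vigor, malformation, size, chlorosis, overall appearance) four to five weeks after preemergence soil spray. Dose equivalent to about 0.125 to 0.50 kg per hectare, applied in aqueous acetone to freshly seeded cups kept in greenhouse.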

[2] = system: GLYCINE MAX(L) MERR. CV. WILLIAMS; test: Postemergence herbicidal evaluation, GLXMAW (Soybean, Williams); set-up: key to GLXMAW rating / Herbicidal effect rating, GLXMAW / GLXMAW: 0-9 visual rating scale vs untreated control
Method in brief: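 Soybean seedlings (Williams) were raised in jiffy flats for roughly two weeks, then sprayed postemergence through a nozzle at 40 psi with test compound dispersed in 50/50 acetone/water containing 0.5% TWEEN®20. Treated plants were kept on greenhouse benches under normal care and visually rated on a 0-9 scale four to five weeks later.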

[3] = system: ORYZA SATIVA, L. TEBONNET; test: Postemergence herbicidal evaluation, ORYSAT (Rice, Tebonnet); set-up: key: 0-9 visual rating scale vs untreated control
Method in brief: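 Rice (Tebonnet) seedlings raised in jiffy flats for roughly two weeks were sprayed postemergence at 40 psi with compound dispersed in 50/50 acetone/water containing 0.5% TWEEN®20. The plants were then kept on greenhouse benches under standard care and visually scored on a 0-9 scale against a control four to five weeks after treatment.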

[4] = system: CHENOPODIUM ALBUM, L.; test: Postemergence herbicidal evaluation, CHEAL (Lambsquarters, Common);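 as to CHEAL: higher means more injury with 8 approaching complete kill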
Method in brief: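 Seedlings of common lambsquarters (Chenopodium album) were raised in jiffy flats for roughly two weeks, then sprayed postemergence through a nozzle at 40 psi with test compound dispersed in 50/50 acetone/water containing 0.5% TWEEN®20 surfactant. Plants were kept on greenhouse benches under standard care and rated visually on a 0-9 scale versus controls.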

[5] = system: ZEA MAYS L.; test: Preemergence herbicidal evaluation, ZEAMX (Corn, Field)
Method in brief: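 Corn (Zea mays) seeds were mixed with potting soil and planted on about one inch of soil in pint cups, then treated preemergence. Cups were kept on greenhouse benches, watered and maintained conventionally, and after four to five weeks were visually rated on a 0-9 scale versus an untreated control.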

[6] = system: […], PRESL.; test: Preemergence weed control under flooded paddy conditions, MOOVA (Monochoria); conditions: for MOOVA: pre-weed; for Herbicidal effect rating, MOOVA: preemergence, 3-4 weeks after treatment
Method in brief: (§2)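 Flooded paddy preemergence test: seeds/propagating organs in top 0.5 cm silt loam, water held 1.5-3 cm above soil. Dosing by pipette into flood water, aqueous/acetone 50/50 v/v, ~0.5, 0.25, 0.125, 0.063 kg/ha a.i. Greenhouse; read at 3-4 wk, 0-9 visual scale.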

[7] = system: GLYCINE MAX(L) MERR. CV. WILLIAMS; test: Preemergence herbicidal evaluation, GLXMAW (Soybean, Williams)
Method in brief: as §1

[8] = system: CYPERUS SEROTINUS, ROTTB.; test: Preemergence weed control under flooded paddy conditions, CYPSE (Flatsedge); conditions: pre-weed
Method in brief: as §2

[9] = system: SAGITTARIA PYGMAEA, L.; test: Preemergence weed control under flooded paddy conditions, SAGPY (Arrowhead (Pygmaea)); conditions: for SAGPY: pre-weed; for SAGPY herbicidal rating: preemergence weeds, rated three to four weeks after treatment
Method in brief: as §2

[10] = system: ECHINOCHLOA ORYZOIDES (ARD.)FRITSCH; test: Preemergence weed control under flooded paddy conditions, ECHORC (Watergrass (Calif.)); conditions: for Herbicidal effect rating, ECHORC: preemergence, 3-4 weeks after treatment; for ECHORC: pre-weed
Method in brief: as §2

## COC(=O)Cn1c(=O)n(C)c(=O)n(-c2cc(Oc3c(F)cc(C(F)(F)F)cc3Cl)ccc2F)c1=O [Compound 4, Methyl 3-{5-[(2-chloro-α,α,α,6-tetrafluoro-p-tolyl)oxy]-2-fluorophenyl}tetrahydro-5-methyl-2,4,6-trioxo-s-triazine-1(2H)-acetate]
[1]; Rate 0.125 kg/ha
  GALAP rating: 7.3
[1]; Rate 0.250 kg/ha
  GALAP rating: 9.0
[1]; Rate 0.500 kg/ha
  GALAP rating: 9.0
[2]; 0.031 kg/ha
  Herbicidal effect rating, GLXMAW: 5.1
[2]; 0.063 kg/ha
  Herbicidal effect rating, GLXMAW: 5.7
[2]; 0.125 kg/ha
  Herbicidal effect rating, GLXMAW: 6.4
[2]; 0.250 kg/ha
  Herbicidal effect rating, GLXMAW: 7.3
[3]; 0.031 kg/ha
  Herbicidal effect rating, ORYSAT: 4.6
[3]; 0.063 kg/ha
  Herbicidal effect rating, ORYSAT: 5.0
[3]; 0.125 kg/ha
  Herbicidal effect rating, ORYSAT: 5.7
[3]; 0.250 kg/ha
  Herbicidal effect rating, ORYSAT: 6.4
[4]; 0.031 kg/ha
  Herbicidal effect rating, CHEAL: 7.9
[4]; 0.063 kg/ha
  Herbicidal effect rating, CHEAL: 8.8
[4]; 0.125 kg/ha
  Herbicidal effect rating, CHEAL: 8.9
[4]; 0.250 kg/ha
  Herbicidal effect rating, CHEAL: 9.0

## Cn1c(=O)[nH]c(=O)n(-c2cc(Oc3c(F)cc(C(F)(F)F)cc3Cl)ccc2F)c1=O [C, reference compound]
[2]; 0.031 kg/ha
  Herbicidal effect rating, GLXMAW: 3.5
[2]; 0.063 kg/ha
  Herbicidal effect rating, GLXMAW: 4.5
[2]; 0.125 kg/ha
  Herbicidal effect rating, GLXMAW: 4.5
[2]; 0.250 kg/ha
  Herbicidal effect rating, GLXMAW: 5.0
[5]; Rate 0.031 kg/ha
  ZEAMX: 0.0
[5]; Rate 0.063 kg/ha
  ZEAMX: 0.0
[5]; Rate 0.125 kg/ha
  ZEAMX: 0.0
[5]; Rate 0.250 kg/ha
  ZEAMX: 0.0
[6]; Rate 0.031 kg/ha
  MOOVA: 9.0
[6]; Rate 0.063 kg/ha
  MOOVA: 9.0
[6]; Rate 0.125 kg/ha
  MOOVA: 9.0
[6]; Rate 0.250 kg/ha
  MOOVA: 9.0
[7]; Rate 0.031 kg/ha
  GLXMAW: 0.0
[7]; Rate 0.063 kg/ha
  GLXMAW: 0.0
[7]; Rate 0.125 kg/ha
  GLXMAW: 0.0
[7]; Rate 0.250 kg/ha
  GLXMAW: 0.0
[8]; Rate 0.031 kg/ha
  CYPSE: 0.0
[8]; Rate 0.063 kg/ha
  CYPSE: 0.0
[8]; Rate 0.125 kg/ha
  CYPSE: 0.0
[8]; Rate 0.250 kg/ha
  CYPSE: 0.0
[9]; Rate 0.031 kg/ha
  SAGPY: 0.0
[9]; Rate 0.063 kg/ha
  SAGPY: 0.0
[9]; Rate 0.125 kg/ha
  SAGPY: 0.0
[9]; Rate 0.250 kg/ha
  SAGPY: 0.0
[3]; 0.031 kg/ha
  Herbicidal effect rating, ORYSAT: 3.0
[3]; 0.063 kg/ha
  Herbicidal effect rating, ORYSAT: 3.5
[3]; 0.125 kg/ha
  Herbicidal effect rating, ORYSAT: 3.5
[3]; 0.250 kg/ha
  Herbicidal effect rating, ORYSAT: 3.5
[4]; 0.031 kg/ha
  Herbicidal effect rating, CHEAL: 3.0
[4]; 0.063 kg/ha
  Herbicidal effect rating, CHEAL: 4.0
[4]; 0.125 kg/ha
  Herbicidal effect rating, CHEAL: 7.0
[4]; 0.250 kg/ha
  Herbicidal effect rating, CHEAL: 7.0

## COC(=O)Cn1c(=O)n(C)c(=O)n(-c2cc(Oc3c(F)cc(C(F)(F)F)cc3Cl)ccc2[N+](=O)[O-])c1=O [Compound 16, Methyl 3-{5-[(2-chloro-α,α,α,6-tetrafluoro-p-tolyl)oxy]-2-nitrophenyl}tetrahydro-5-methyl-2,4,6-trioxo-s-triazine-1(2H)-acetate]
[1]; Rate 0.031 kg/ha
  GALAP: 9.0
[1]; Rate 0.063 kg/ha
  GALAP: 9.0
[1]; Rate 0.125 kg/ha
  GALAP: 9.0
  GALAP herbicidal rating: 9.0
[1]; Rate 0.250 kg/ha
  GALAP: 9.0
  GALAP herbicidal rating: 9.0
[1]; Rate 0.500 kg/ha
  GALAP herbicidal rating: 9.0
[2]; Rate 0.008 kg/ha
  GLXMAW: 3.3
[2]; Rate 0.016 kg/ha
  GLXMAW: 3.8
[2]; Rate 0.031 kg/ha
  GLXMAW: 4.6
[2]; Rate 0.063 kg/ha
  GLXMAW: 5.1
[2]; Rate 0.125 kg/ha
  GLXMAW: 5.6
[10]; 0.063 kg/ha
  Herbicidal effect rating, ECHORC: 9.0
[10]; 0.125 kg/ha
  Herbicidal effect rating, ECHORC: 9.0
[10]; 0.250 kg/ha
  Herbicidal effect rating, ECHORC: 9.0
[10]; 0.500 kg/ha
  Herbicidal effect rating, ECHORC: 9.0
[10]; Rate 0.031 kg/ha
  ECHORC: 9.0
[10]; Rate 0.063 kg/ha
  ECHORC: 9.0
[10]; Rate 0.125 kg/ha
  ECHORC: 9.0
[10]; Rate 0.250 kg/ha
  ECHORC: 9.0
[6]; 0.063 kg/ha
  Herbicidal effect rating, MOOVA: 9.0
[6]; 0.125 kg/ha
  Herbicidal effect rating, MOOVA: 9.0
[6]; 0.250 kg/ha
  Herbicidal effect rating, MOOVA: 9.0
[6]; 0.500 kg/ha
  Herbicidal effect rating, MOOVA: 9.0
[6]; Rate 0.031 kg/ha
  MOOVA: 9.0
[6]; Rate 0.063 kg/ha
  MOOVA: 9.0
[6]; Rate 0.125 kg/ha
  MOOVA: 9.0
[6]; Rate 0.250 kg/ha
  MOOVA: 9.0
[3]; Rate 0.008 kg/ha
  ORYSAT: 4.0
[3]; Rate 0.016 kg/ha
  ORYSAT: 6.0
[3]; Rate 0.031 kg/ha
  ORYSAT: 5.3
[3]; Rate 0.063 kg/ha
  ORYSAT: 5.3
[3]; Rate 0.125 kg/ha
  ORYSAT: 5.8
[4]; Rate 0.008 kg/ha
  CHEAL: 0.0
[4]; Rate 0.016 kg/ha
  CHEAL: 1.5
[4]; Rate 0.031 kg/ha
  CHEAL: 3.0
[4]; Rate 0.063 kg/ha
  CHEAL: 3.7
[4]; Rate 0.125 kg/ha
  CHEAL: 6.5

## COC(=O)Cn1c(=O)n(C)c(=O)n(-c2cc(Oc3ccc(C(F)(F)F)cc3Cl)ccc2[N+](=O)[O-])c1=O [Compound 3, Methyl 3-{5-[(2-chloro-α,α,α-trifluoro-p-tolyl)oxy]-2-nitrophenyl}tetrahydro-5-methyl-2,4,6-trioxo-s-triazine-1(2H)-acetate]
[1]; Rate 0.125 kg/ha
  GALAP rating: 7.3
[1]; Rate 0.250 kg/ha
  GALAP rating: 8.4
[1]; Rate 0.500 kg/ha
  GALAP rating: 9.0
[2]; 0.031 kg/ha
  Herbicidal effect rating, GLXMAW: 4.8
[2]; 0.063 kg/ha
  Herbicidal effect rating, GLXMAW: 5.3
[2]; 0.125 kg/ha
  Herbicidal effect rating, GLXMAW: 5.9
[2]; 0.250 kg/ha
  Herbicidal effect rating, GLXMAW: 6.3
[9]; Rate 0.031 kg/ha
  SAGPY: 0.0
[9]; Rate 0.063 kg/ha
  SAGPY: 0.0
  SAGPY herbicidal rating: 0.0
[9]; Rate 0.125 kg/ha
  SAGPY: 0.0
  SAGPY herbicidal rating: 0.0
[9]; Rate 0.250 kg/ha
  SAGPY: 0.0
  SAGPY herbicidal rating: 0.0
[9]; Rate 0.500 kg/ha
  SAGPY herbicidal rating: 0.0
[3]; 0.031 kg/ha
  Herbicidal effect rating, ORYSAT: 4.9
[3]; 0.063 kg/ha
  Herbicidal effect rating, ORYSAT: 5.1
[3]; 0.125 kg/ha
  Herbicidal effect rating, ORYSAT: 5.7
[3]; 0.250 kg/ha
  Herbicidal effect rating, ORYSAT: 6.6
[4]; 0.031 kg/ha
  Herbicidal effect rating, CHEAL: 5.1
[4]; 0.063 kg/ha
  Herbicidal effect rating, CHEAL: 6.0
[4]; 0.125 kg/ha
  Herbicidal effect rating, CHEAL: 7.2
[4]; 0.250 kg/ha
  Herbicidal effect rating, CHEAL: 7.4
